Results from US12729181B2, “Compounds, compositions, and methods for modulating calcium ion homeostasis” (The Regents of the University of California, priority 2020, dated 2026).

System: tre^tc318 mutant embryos
Assay: Compound rescue screen: restoration of persistent heartbeat in tremblor embryos
Type: in vivo, Zebrafish
Settings: for responders at 10 µM / responders at 15 µM / responders at 20 µM: Danio rerio, 48 h; for responders at 10 µM: read-out: Rescue at 10 uM (%); for responders at 15 µM: read-out: Rescue at 15 uM (%); for responders at 20 µM: read-out: Rescue at 20 uM (%); for Rescue at 10 uM (%): 10 uM from 30 hpf
Description: Zebrafish of the mutant line tremblor (tre^tc318) were maintained and bred as described previously in the literature. C. f. Langenbacher A D, et al., PNAS, 2005, 102(49), 17699-17704.
Exemplary compounds were screened for their ability to partially or completely restore persistent heartbeat in tre^tc318 embryos. 10 tre^tc318 mutant embryos were placed in each well of a 24-well plate and raised in the presence of individual compounds at various concentrations (5, 10, 15 and 20 μM) from 30 hpf. Cardiac function was analyzed by visual inspection at 2 dpf. The hearts of tre^tc318 embryos manifest a chaotic movement resembling cardiac fibrillation with sporadic contractions. Compounds that elicited persistent coordinated cardiac contractions were validated by rescreening at least once on another 10 tre^tc318 mutant embryos.

[1] = cardiac function by visual inspection at 2 dpf, 10 embryos per well

SMILES | responders at 10 µM | responders at 15 µM | further results
CCOC(=O)C1=CCN(S(=O)(=O)c2ccccc2C(=O)OC)C1c1ccc(C)cc1 (centres unmarked) [FS076] | 40% | 60% | responders at 20 µM: 10%
CCOC(=O)C1=CCN(S(=O)(=O)c2cccc(Br)c2)C1c1ccc(Cl)cc1 (centres unmarked) [FS136] |  | 29% | 
CCOC(=O)C1=CCN(S(=O)(=O)c2cccc(F)c2)C1c1ccc(Cl)cc1 (centres unmarked) [FS133] |  | 78% | 
CCOC(=O)C1=CCN(S(=O)(=O)c2ccc(C)cc2)C1c1cccc(Br)c1 (centres unmarked) [FS067] |  |  | Rescue at 10 uM (%) [1]: 20%
CCOC(=O)C1=CCN(S(=O)(=O)c2ccccc2Cl)C1c1cccc(Cl)c1 (centres unmarked) [FS024] | 0% |  | 
CCOC(=O)C1=CCN(S(=O)(=O)c2ccc(C)cc2)C1c1ccc2c(c1)OCO2 (centres unmarked) [FS059] | 20% |  | 
CCOC(=O)C1=CCN(S(=O)(=O)c2ccc(Cl)cc2)C1c1cccc(Br)c1 (centres unmarked) [FS089] | 0% |  | 
CCOC(=O)C1=CCN(S(=O)(=O)c2ccccc2Br)C1c1cccc(C)c1 (centres unmarked) [FS033] | 0% |  | 
CCOC(=O)C1=CCN(S(=O)(=O)c2ccc(Cl)cc2)C1c1cccc(F)c1 (centres unmarked) [FS090] | 40% |  | 
CCOC(=O)C1=CCN(S(=O)(=O)c2cccc(Cl)c2)C1c1cccc(C)c1 (centres unmarked) [FS122] |  | 33% | 
CCOC(=O)C1=CCN(S(C)(=O)=O)C1c1ccc(C)cc1 (centres unmarked) [FS140] |  | 0% | 
CCOC(=O)C1=CCN(S(=O)(=O)c2ccc(F)cc2)C1c1cccc(Br)c1 (centres unmarked) [FS115] |  | 30% | 
CCOC(=O)C1=CCN(S(=O)(=O)c2ccc(F)cc2)C1c1ccc(Br)cc1 (centres unmarked) [FS124] |  | 90% | 
CCOC(=O)C1=CCN(S(=O)(=O)c2ccccc2C)C1c1ccc(Br)cc1 (centres unmarked) [FS039] | 33% |  | 
CCOC(=O)C1=CCN(S(=O)(=O)c2ccccc2F)C1c1cccc(F)c1 (centres unmarked) [FS037] | 0% |  | 
CCOC(=O)C1=CCN(S(=O)(=O)c2ccc(Cl)cc2)C1c1cccc(C)c1 (centres unmarked) [FS091] | 0% |  | 
CCOC(=O)C1=CCN(S(=O)(=O)c2ccc(C)cc2)C1c1ccc(C)cc1 (centres unmarked) [FS057] |  |  | Rescue at 10 uM (%) [1]: 60%; Rescue at 15 uM (%) (15 uM from 30 hpf, cardiac function by visual inspection at 2 dpf, 10 embryos per well): 70%; Rescue at 20 uM (%) (20 uM from 30 hpf, cardiac function by visual inspection at 2 dpf, 10 embryos per well): 60%
CCOC(=O)C1=CCN(S(=O)(=O)c2ccc(C)cc2)C1c1ccc(C#N)cc1 (centres unmarked) [FS060] | 80% | 60% | responders at 20 µM: 0%

SMILES | responders at 10 µM | responders at 15 µM | further results
CCOC(=O)C1=CCN(S(=O)(=O)c2ccc(Cl)cc2)C1c1ccc(F)cc1 (centres unmarked) [FS098] | 40% | 44% | responders at 20 µM: 89%
CCOC(=O)C1=CCN(S(=O)(=O)c2ccc(Br)cc2)C1c1cccc(Br)c1 (centres unmarked) [FS094] | 11% | 75% | responders at 20 µM: 25%
CCOC(=O)C1=CCN(S(=O)(=O)c2ccccc2)C1c1ccc(C)cc1 (centres unmarked) [FS077] |  |  | Rescue at 10 uM (%) [1]: 30%
CCOC(=O)C1=CCN(S(=O)(=O)c2cccc(Cl)c2)C1c1ccc(Cl)c(Cl)c1 (centres unmarked) [FS118] |  | 10% | 
CCOC(=O)C1=CCN(S(=O)(=O)c2ccccc2C)C1c1cccc(F)c1 (centres unmarked) [FS022] | 0% |  | 
CCOC(=O)C1=CCN(S(=O)(=O)c2ccccc2Br)C1c1ccc(Br)cc1 (centres unmarked) [FS046] | 60% | 10% | responders at 20 µM: 10%
CCOC(=O)C1=CCN(S(=O)(=O)c2ccccc2C)C1c1ccc(Cl)cc1 (centres unmarked) [FS017] | 25% | 60% | responders at 20 µM: 20%
CCOC(=O)C1=CCN(S(=O)(=O)c2ccc(C)cc2)C1c1ccc(C(=O)OCC)cc1 (centres unmarked) [FS061] | 40% | 56% | responders at 20 µM: 40%
CCOC(=O)C1=CCN(S(=O)(=O)c2ccccc2)C1c1ccccc1 (centres unmarked) [FS148] |  | 56% | 
CCOC(=O)C1=CCN(S(=O)(=O)c2ccccc2Br)C1c1ccccc1 (centres unmarked) [FS055] | 0% |  | 
CCOC(=O)C1=CCN(S(=O)(=O)c2ccccc2Br)C1c1cccc(Br)c1 (centres unmarked) [FS031] | 0% |  | 
CCOC(=O)C1=CCN(S(=O)(=O)c2ccccc2Cl)C1c1ccccc1 (centres unmarked) [FS054] | 0% |  | 
CCOC(=O)C1=CCN(S(=O)(=O)c2ccccc2Br)C1c1ccc(Cl)c(Cl)c1 (centres unmarked) [FS029] | 70% | 10% | responders at 20 µM: 10%
CCOC(=O)C1=CCN(S(=O)(=O)c2cccc(Cl)c2)C1c1cccc(F)c1 (centres unmarked) [FS121] |  | 56% | 
CCOC(=O)C1=CCN(S(=O)(=O)c2ccc(Br)cc2)C1c1ccc(Br)cc1 (centres unmarked) [FS100] | 0% | 33% | 
CCOC(=O)C1=CCN(S(=O)(=O)c2ccc(Cl)cc2)C1c1ccc(Cl)c(Cl)c1 (centres unmarked) [FS087] | 22% | 0% | responders at 20 µM: 0%
CCOC(=O)C1=CCN(S(=O)(=O)c2ccccc2Cl)C1c1cccc(C)c1 (centres unmarked) [FS028] | 0% |  | 
